# From patent EP4108244A1, “SS-LACTAM ANTIBIOTIC WITH SIGNIFICANT ACTIVITY AGAINST CANCER E.G. COLON MALIGNANCIES” (priority 2021, dated 2022)
# Where “and” joins values, the source holds several entries; their conditions need not be identical. Equal entries are not always repeated. Marks after values point to notes of the source that are not given here.
# Key:
# RAW 264.7 cells = test: MTT metabolic activity assay on macrophages; format: cell-based, murine; conditions: RAW 264.7
# Description: (§1) Cells were plated at 2^∗104cells/ml in 96-well plates and incubated overnight. The following day, cells were treated in triplicate with Ceftazdime or 5-fluorouracil for 24-48 h, depending on the cell line used. Metabolic activity of the cells was studied using the MTT assay that measures the ability of metabolically active cells to convert tetrazolium salt into a blue formazan product, the absorbance of which is recorded at 540 nm by an ELISA reader (Bio-Rad iMark Microplate Reader).
# DLD-1 cells [1] = test: MTT metabolic activity assay; format: cell-based, human; conditions: 48 h post-treatment, 5-Fluorouracil 16µM
# Description: MTT assay was used to assess the proliferation rate of HCT-116 and DLD-1 cells. In this assay the ability of metabolically active cells to convert tetrazolium salt into a blue formazan product is measured. The absorption of the dissolved formazan was quantified at 540 nm by an ELISA reader (Bio-Rad iMark Microplate Reader).
# as §1, with “The following day, cells were treated in triplicate with Ceftazdime or 5-fluorouracil for 24-48 h, depending on the cell line used.” left out
# HCT-116 cells [2] = test: Cell cycle distribution, propidium iodide staining; format: cell-based, human; conditions: for percentage of cells in G0/G1 / percentage of cells in G2/M / percentage of cells in Pre G1 / percentage of cells in S: CFT 100 µg/mL, CFP 50 µg/mL, 5-FU 8 µM, alone or combined, mean ± SE
# Description: Propidium iodide (PI) staining was used to evaluate the effect of the different treatments on the cell cycle. […] Fixed cells, which were washed with PBS and incubated at 37 °C for 1 h with 50 µl RNase (1 mg/ml) (Sigma Aldrich, Germany), were stained for 15 minutes with PI (Molecular Probes, Eugene, Oregon, USA).
# DLD-1 cells [3] = test: Caspase-3/7 activity assay; format: cell-based, human; conditions: 48 h and 72 h, 5-FU 16 µM, CFT 100 µg/ml
# Description: (§2) Caspase-3/7 activity was measured 48 h and 72 h post-treatment according to the manufacturer's protocol (Caspase-Glo-3/7 Assay, Promega Corp, Madison, WI, USA). Briefly, equal volume from treated cells and caspase-3/7 mixture were incubated at room temperature for 3 h and the luminescence was measured by a microplate reader.
# as §2, with “DLD-1 cells were treated with CFT (100 µg/ml) or 5-Fluorouracil (16 µM). Caspase-3/7” for “Caspase-3/7”, “caspase 3/7” for “caspase-3/7”
# Caco-2 cells = test: MTT metabolic activity assay; format: cell-based, human; conditions: Homo sapiens, 24 h post-treatment, 5-Fluorouracil 4µM, read-out: inhibition of proliferation (metabolic activity)
# Description: as §1
# DLD-1 cells [4] = test: Cell cycle distribution, propidium iodide staining; format: cell-based, human; conditions: CFT 100 µg/mL, CFP 50 µg/mL, 5-FU 16 µM, alone or combined, mean ± SE
# Description: Propidium iodide (PI) staining was used to evaluate the effect of the different treatments on the cell cycle. […] 48 h and 72 h post-treatment, collected cells were fixed with ice-cold ethanol (70%) and stored at - 20 °C for at least 2 h. Fixed cells, which were washed with PBS and incubated at 37 °C for 1 h with 50 µl RNase (1 mg/ml) (Sigma Aldrich, Germany), were stained for 15 minutes with PI (Molecular Probes, Eugene, Oregon, USA). Cell cycle was monitored using BD FACSDiva™ and the percentage of cells in the different phases of the cell cycle (pre-Gi, G0/G1, S, and G2/M) phases was determined using BD FACSDiva™ Software.
# Propidium iodide (PI) staining was used to evaluate the effect of the different treatments (Ceftazidime (100 µg/ml) or 5-Fluorouracil (16 µM)) on the cell cycle profile of DLD-1 cells. Briefly, DLD-1 cells were plated at 5^∗104/ml and treated for 48 h and 72 h. Collected cells were fixed with ice-cold ethanol (70%) and stored at -20°C for at least 2 h. Fixed cells, which were washed with PBS and incubated at 37°C for 1 h with 50 µl RNase (1 mg/ml) (Sigma Aldrich, Germany), were stained for 15 minutes with PI (Molecular Probes, Eugene, Oregon, USA). Cell cycle was monitored using BD FACSDiva™ and the percentage of cells in the different phases of the cell cycle (pre-Gi, G0/G1, S, and G2/M) phases was determined using BD FACSDiva™ Software.
# HCT-116 cells [5] = test: MTT metabolic activity assay; format: cell-based, human; conditions: for effect of combination with 5-FU on the inhibition of metabolic activity induced by 5-FU (in words): 5-FU 16 µM and 24 µM, MER, AMP, PIP 10, 50, 100 µg/mL, BenP, FLU 5, 25, 50 µg/mL
# [6] = Stability in media, LC-MS/MS; format: physicochemical; conditions: antibiotic alone (CFP 50 µg/mL, CFT 100 µg/mL)
# Description: B) CFT (100 µg/ml) ± 5-FU (8 µM and 16 µM). P value (a) (between antibiotic alone and 5-FU (8 µM)); P value (b) (between antibiotic alone and 5-FU (16 µM)), n = 3.
# DLD-1 cells [7] = test: Antibiotics' uptake by the cells, LC-MS/MS; conditions: for Concentration of CFP, Lysate / Concentration of CFP, Supernatant: CFP 50 µg/ml alone or + 5-FU 16 µM
# Description: (§3) This step was repeated three times and cell homogenate were vortexed at high-speed prior extraction. 40 µl from each supernatant and cell suspension were combined with 200 µl of internal standard working solution prepared in ice-cold methanol. Samples were then centrifuged and 100 µl of the supernatant were diluted with 400 µl water in glass vials prior analysis with LC-/MS/MS.
# HCT-116 cells [8] = test: Antibiotics' uptake by the cells, LC-MS/MS; conditions: for Concentration of CFP, Lysate / Concentration of CFP, Supernatant: HCT-116 cells, CFP 50 µg/ml alone or + 5-FU 8 µM
# Description: as §3
# HCT-116 cells [9] = test: Caspase-3/7 activity assay; format: cell-based, human; conditions: combined with 5-FU 8 µM, 48 and 72h, CFT 100 µg/ml, CFP 50 µg/ml
# Description: as §2
compound,measurement,setting,value
"O=c1[nH]cc(F)c(=O)[nH]1 [5-FU, 5-fluorouracil]",decrease of metabolic activity,RAW 264.7 cells; 24 h of treatment,80%
same,metabolic activity of macrophages (in words),RAW 264.7 cells; 48 h post-treatment,sustained up to 48 h
same,inhibitory effect vs. control untreated cells (metabolic activity),DLD-1 cells [1],18%
same,increase in the percentage of cells in the pre-G1 phase vs. control,HCT-116 cells [2]; 48 h,3 fold
same,percentage of cells in G0/G1,HCT-116 cells [2]; 48 h,48.4 ± 2.3^(a) %
same,percentage of cells in G2/M,HCT-116 cells [2]; 48 h,22.3 ± 2.9%
same,percentage of cells in Pre G1,HCT-116 cells [2]; 48 h,16.9 ± 2.5^(a) %
same,percentage of cells in S,HCT-116 cells [2]; 48 h,10.6 ± 1.0%
same,increase in the percentage of cells in the pre-G1 phase vs. control,HCT-116 cells [2]; 72 h,8.2 fold
same,percentage of cells in G0/G1,HCT-116 cells [2]; 72 h,39.0 ± 9.5^(a) %
same,percentage of cells in G2/M,HCT-116 cells [2]; 72 h,16.4 ± 2.4^(a) %
same,percentage of cells in Pre G1,HCT-116 cells [2]; 72 h,36.7 ± 11.7^(a) %
same,percentage of cells in S,HCT-116 cells [2]; 72 h,6.6 ± 0.7%
same,caspase 3/7 activity / apoptosis induction (in words),DLD-1 cells [3],did not induce caspase 3/7 activity
same,inhibition at 4 µM,Caco-2 cells,22%
same,percentage of cells in G0/G1,DLD-1 cells [4]; 48 h,49.3 ± 4.4%
same,percentage of cells in G2/M,DLD-1 cells [4]; 48 h,10.3 ± 1.7^(a) %
same,percentage of cells in Pre G1,DLD-1 cells [4]; 48 h,6.3 ± 2.3%
same,percentage of cells in S,DLD-1 cells [4]; 48 h,32.0 ± 6.1^(a) %
same,percentage of cells in G0/G1,DLD-1 cells [4]; 72 h,69.4 ± 5.0%
same,percentage of cells in G2/M,DLD-1 cells [4]; 72 h,5.4 ± 2.7^(a) %
same,percentage of cells in Pre G1,DLD-1 cells [4]; 72 h,4.7 ± 0.3%
same,percentage of cells in S,DLD-1 cells [4]; 72 h,20.1 ± 2.9^(a) %
"CC1(C)S[C@@H]2[C@H](NC(=O)[C@H](N)c3ccccc3)C(=O)N2[C@H]1C(=O)O [AMP, ampicillin]",effect of combination with 5-FU on the inhibition of metabolic activity induced by 5-FU (in words),HCT-116 cells [5],does not affect the inhibition
"CC1(C)S[C@@H]2[C@H](NC(=O)Cc3ccccc3)C(=O)N2[C@H]1C(=O)O [BenP, benzylpenicillin]",effect of combination with 5-FU on the inhibition of metabolic activity induced by 5-FU (in words),HCT-116 cells [5],does not affect the inhibition
"CO/N=C(\C(=O)N[C@@H]1C(=O)N2C(C(=O)[O-])=C(C[N+]3(C)CCCC3)CS[C@H]12)c1csc(N)n1 [CFP, cefepime]","Stability test, level in media",[6]; 2h in media,49.9 ± 9.5
same,"Stability test, level in media",[6]; 8h in media,48.8 ± 5.3
same,effect on 5-FU's effect on metabolic activity (in words),"HCT-116 cells [5]; 48 h post-treatment, CFT 100 µg/mL, CFP 50 µg/mL combined with 5-FU",antagonized 5-FU's effect
same,"Concentration of CFP, Lysate",DLD-1 cells [7]; 2 h,0.012 ± 0.005
same,"Concentration of CFP, Supernatant",DLD-1 cells [7]; 2 h,50.000 ± 1.697
same,"Concentration of CFP, Lysate",DLD-1 cells [7]; 4 h,0.010 ± 0.0002
same,"Concentration of CFP, Supernatant",DLD-1 cells [7]; 4 h,54.187 ± 0.849
same,"Concentration of CFP, Lysate",DLD-1 cells [7]; 6 h,0.014 ± 0.0001
same,"Concentration of CFP, Supernatant",DLD-1 cells [7]; 6 h,45.813 ± 3.818
same,"Concentration of CFP, Lysate",DLD-1 cells [7]; 8 h,0.012 ± 0.001
same,"Concentration of CFP, Supernatant",DLD-1 cells [7]; 8 h,47.947 ± 12.644
same,average uptake by the cells,DLD-1 cells [7]; up to 8h,around 0.02%
same,"Concentration of CFP, Lysate",HCT-116 cells [8]; 2 h,0.018 ± 0.004
same,"Concentration of CFP, Supernatant",HCT-116 cells [8]; 2 h,44.1 and 44.100 ± 3.395
same,"Concentration of CFP, Lysate",HCT-116 cells [8]; 4 h,0.022 ± 0.005
same,"Concentration of CFP, Supernatant",HCT-116 cells [8]; 4 h,34.500 ± 3.818
same,"Concentration of CFP, Lysate",HCT-116 cells [8]; 6 h,0.050 ± 0.003
same,"Concentration of CFP, Supernatant",HCT-116 cells [8]; 6 h,35.250 ± 1.485
same,"Concentration of CFP, Lysate",HCT-116 cells [8]; 8 h,0.032 ± 0.002
same,"Concentration of CFP, Supernatant",HCT-116 cells [8]; 8 h,35.9 and 35.850 ± 1.909
same,average uptake in HCT-116 cells compared to DLD-1 cells,HCT-116 cells [8]; up to 8h,2 folds
same,percentage of cells in G0/G1,HCT-116 cells [2]; 48 h,51.7 ± 2.8%
same,percentage of cells in G2/M,HCT-116 cells [2]; 48 h,24.6 ± 0.9%
same,percentage of cells in Pre G1,HCT-116 cells [2]; 48 h,4.9 ± 1.6%
same,percentage of cells in S,HCT-116 cells [2]; 48 h,13.6 ± 1.6%
same,percentage of cells in G0/G1,HCT-116 cells [2]; 72 h,53.8 ± 3.6^(a) %
same,percentage of cells in G2/M,HCT-116 cells [2]; 72 h,23.6 ± 2.2^(a) %
same,percentage of cells in Pre G1,HCT-116 cells [2]; 72 h,9.8% and 9.3 ± 2.9^(a) %
same,percentage of cells in S,HCT-116 cells [2]; 72 h,7.4 ± 1.4%
same,"effect on 5-FU-induced apoptosis (caspase 3/7, in words)",HCT-116 cells [9],effect was seen only 72h post-treatment
same,percentage of cells in G0/G1,DLD-1 cells [4]; 48 h,48.8 ± 4.0%
same,percentage of cells in G2/M,DLD-1 cells [4]; 48 h,18.4 ± 4.3%
same,percentage of cells in Pre G1,DLD-1 cells [4]; 48 h,2.6 ± 0.3%
same,percentage of cells in S,DLD-1 cells [4]; 48 h,29.2 ± 8.1%
same,percentage of cells in G0/G1,DLD-1 cells [4]; 72 h,59.6 ± 3.6^(a) %
same,percentage of cells in G2/M,DLD-1 cells [4]; 72 h,17.0 ± 3.5%
same,percentage of cells in Pre G1,DLD-1 cells [4]; 72 h,9.5 ± 4.1^(a) %
same,percentage of cells in S,DLD-1 cells [4]; 72 h,13.1 ± 3.3^(a) %
"Cc1onc(-c2c(F)cccc2Cl)c1C(=O)N[C@@H]1C(=O)N2[C@@H]1SC(C)(C)[C@@H]2C(=O)O [FLU, flucloxacillin]",effect of combination with 5-FU on the inhibition of metabolic activity induced by 5-FU (in words),HCT-116 cells [5],does not affect the inhibition
"C[C@@H](O)[C@H]1C(=O)N2C(C(=O)O)=C(S[C@@H]3CN[C@H](C(=O)N(C)C)C3)[C@H](C)[C@H]12 [MER, meropenem]",effect of combination with 5-FU on the inhibition of metabolic activity induced by 5-FU (in words),HCT-116 cells [5],does not affect the inhibition
"CCN1CCN(C(=O)N[C@@H](C(=O)N[C@@H]2C(=O)N3[C@@H]2SC(C)(C)[C@@H]3C(=O)O)c2ccccc2)C(=O)C1=O [PIP, piperacillin]",effect of combination with 5-FU on the inhibition of metabolic activity induced by 5-FU (in words),HCT-116 cells [5],does not affect the inhibition
